From patent US8454934B2, “High molecular weight chelation structure” (Canadian Blood Services, priority 2006, dated 2013)

What was measured:
[1] = upon intravascular administration; cellular uptake and kidney clearance; cited from earlier work
mice = conditions: cited from earlier work
[2] = Solubility in water and plasma, by absorbance versus wavelength (FIG. 20A); type: physicochemical; conditions: absorbance plots FIG. 20A, HMW-ICL-670 was 20% (by weight) ICL-670
Method: FIGS. 20A and 20B are plots of absorbance of radiation in water versus wavelength of the radiation, for low molecular weight ICL670 (3 mg/ml) and the chelation structure of the present invention (denoted as HMW) dissolved in the water, in accordance with embodiments of the present invention. […] The measured absorbance increases with increasing concentration of the chelators/chelation structures dissolved in the water and is thus a measure of the solubility of the chelators/chelation structures in the water.

CC(=O)N(O)CCCCCNC(=O)CCC(=O)N(O)CCCCCNC(=O)CCC(=O)N(O)CCCCCN.CS(=O)(=O)O [DFO, N-[5-(3-[(5-aminopentyl)-hydroxycarbamoyl]-propionamido)pentyl]-3-([5-(N-hydroxyacetamido)-pentyl]-carbamoyl)-propionohydroxamic acid monomethane sulphonate]
time to complete clearance from the vasculature [1]: approximately 20 minutes
LD50 (mice): ~250 mg/kg

O=C(O)c1ccc(-n2nc(-c3ccccc3O)nc2-c2ccccc2O)cc1 [ICL670, 4-[3,5-bis(2-hydroxyphenyl)-1,2,4-triazol-1-yl]-benzoic acid]
solubility in water [2]: insoluble in water
